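Cells were grown in 96-well plates and exposed to each compound for 48 hours at five concentrations; endpoints were interpolated linearly between bracketing concentrations, or set to the highest concentration if not reached. At the GI50, growth is halved.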 Activity calls are given as the source filed them. Rule as the data show it: active = GI50 up to about 1.1 µM and inactive = higher.
Assays:
Assay in all cases: inhibition of tumour cell growth, NCI panel, 48 h
HOP-92 = tested on: HOP-92
SK-MEL-28 = tested on: SK-MEL-28
IGROV-1 = tested on: IGROV-1
Malme-3M = tested on: Malme-3M
MDA-MB-435 = tested on: MDA-MB-435
TK-10 = tested on: TK-10
HOP-62 = tested on: HOP-62
SW-620 = tested on: SW-620
SF-268 = tested on: SF-268
RPMI-8226 = tested on: RPMI-8226
MDA-MB-231 = tested on: MDA-MB-231
SNB-19 = tested on: SNB-19
NCI-H226 = tested on: NCI-H226
RXF 393 = tested on: RXF 393
UACC-257 = tested on: UACC-257
SR = tested on: SR
M14 = tested on: M14
U-251 = tested on: U-251
UO-31 = tested on: UO-31
PC-3 = tested on: PC-3
NCI/ADR-RES = tested on: NCI/ADR-RES
Hs-578T = tested on: Hs-578T
LOX IMVI = tested on: LOX IMVI
ACHN = tested on: ACHN
SF-295 = tested on: SF-295
COLO 205 = tested on: COLO 205
OVCAR-4 = tested on: OVCAR-4
EKVX = tested on: EKVX
SK-MEL-2 = tested on: SK-MEL-2
BT-549 = tested on: BT-549
HCT-116 = tested on: HCT-116
OVCAR-5 = tested on: OVCAR-5
HT-29 = tested on: HT-29
HL-60 = tested on: HL-60
DU-145 = tested on: DU-145
NCI-H460 = tested on: NCI-H460
HCT-15 = tested on: HCT-15
CAKI-1 = tested on: CAKI-1
MDA-N = tested on: MDA-N
A549 = tested on: A549
KM12 = tested on: KM12
NCI-H23 = tested on: NCI-H23
MOLT-4 = tested on: MOLT-4
SNB-75 = tested on: SNB-75
K562 = tested on: K562
SF-539 = tested on: SF-539
OVCAR-3 = tested on: OVCAR-3
NCI-H522 = tested on: NCI-H522
CCRF-CEM = tested on: CCRF-CEM
A498 = tested on: A498
MCF7 = tested on: MCF7
OVCAR-8 = tested on: OVCAR-8
SK-MEL-5 = tested on: SK-MEL-5
SN12C = tested on: SN12C
786-0 = tested on: 786-0
HCC 2998 = tested on: HCC 2998
SK-OV-3 = tested on: SK-OV-3
UACC-62 = tested on: UACC-62

COCCNC1CCC2(SCCS2)c2[nH]c3ccccc3c21 (stereo not given)
GI50 (HOP-92): 21.8 µM (inactive)
GI50 (SK-MEL-28): 26.3 µM (inactive)
GI50 (IGROV-1): > 100 µM (inactive)
GI50 (Malme-3M): > 10 µM (inactive)
GI50 (MDA-MB-435): 22.4 µM (inactive)
GI50 (TK-10): 22.5 µM (inactive)
GI50 (HOP-62): 86.7 µM (inactive)
GI50 (SW-620): 68.7 µM (inactive)
GI50 (SF-268): > 100 µM (inactive)
GI50 (RPMI-8226): 15 µM (inactive)
GI50 (MDA-MB-231): 20.3 µM (inactive)
GI50 (SNB-19): > 100 µM (inactive)
GI50 (NCI-H226): 40.3 µM (inactive)
GI50 (RXF 393): 14 µM (inactive)
GI50 (UACC-257): 18 µM (inactive)
GI50 (SR): 23.1 µM (inactive)
GI50 (M14): 16 µM (inactive)
GI50 (U-251): 37.2 µM (inactive)
GI50 (UO-31): > 10 µM (inactive)
GI50 (PC-3): 28.6 µM (inactive)
GI50 (NCI/ADR-RES): 37.5 µM (inactive)
GI50 (Hs-578T): 57.9 µM (inactive)
GI50 (LOX IMVI): 16.5 µM (inactive)
GI50 (ACHN): 61.9 µM (inactive)
GI50 (SF-295): 50.4 µM (inactive)
GI50 (COLO 205): 22.2 µM (inactive)
GI50 (OVCAR-4): 97.1 µM (inactive)
GI50 (EKVX): > 100 µM (inactive)
GI50 (SK-MEL-2): 44.8 µM (inactive)
GI50 (BT-549): 20.6 µM (inactive)
GI50 (HCT-116): 50.1 µM (inactive)
GI50 (OVCAR-5): > 100 µM (inactive)
GI50 (HT-29): > 100 µM (inactive)
GI50 (HL-60): 18.9 µM (inactive)
GI50 (DU-145): 39.3 µM (inactive)
GI50 (NCI-H460): 67.8 µM (inactive)
GI50 (HCT-15): 69.8 µM
GI50 (CAKI-1): 39.1 µM (inactive)
GI50 (MDA-N): 22.9 µM (inactive)
GI50 (A549): > 100 µM (inactive)
GI50 (KM12): 17.8 µM (inactive)
GI50 (NCI-H23): > 100 µM (inactive)
GI50 (MOLT-4): 29.2 µM (inactive)
GI50 (SNB-75): 90.8 µM (inactive)
GI50 (K562): 32.2 µM (inactive)
GI50 (SF-539): 23.6 µM (inactive)
GI50 (OVCAR-3): 27.2 µM (inactive)
GI50 (NCI-H522): 30.8 µM (inactive)
GI50 (CCRF-CEM): 35.2 µM (inactive)
GI50 (A498): 25.5 µM (inactive)
GI50 (MCF7): 16.8 µM (inactive)
GI50 (OVCAR-8): 46.1 µM (inactive)
GI50 (SK-MEL-5): 25.1 µM (inactive)
GI50 (SN12C): 28.4 µM (inactive)
GI50 (786-0): 31.8 µM (inactive)
GI50 (HCC 2998): 67.6 µM (inactive)

CCOC(=O)Cc1nc2cc(F)c(F)cc2[nH]c1=O
GI50 (HOP-92): > 100 µM (inactive)
GI50 (SK-OV-3): > 100 µM (inactive)
GI50 (SK-MEL-28): > 100 µM (inactive)
GI50 (Malme-3M): > 100 µM (inactive)
GI50 (MDA-MB-435): > 100 µM (inactive)
GI50 (TK-10): > 100 µM (inactive)
GI50 (HOP-62): > 100 µM (inactive)
GI50 (SW-620): > 100 µM (inactive)
GI50 (SF-268): > 100 µM (inactive)
GI50 (RPMI-8226): > 100 µM (inactive)
GI50 (MDA-MB-231): > 100 µM (inactive)
GI50 (SNB-19): > 100 µM (inactive)
GI50 (NCI-H226): > 100 µM (inactive)
GI50 (RXF 393): > 100 µM (inactive)
GI50 (UACC-257): > 100 µM (inactive)
GI50 (M14): > 100 µM (inactive)
GI50 (U-251): > 100 µM (inactive)
GI50 (UO-31): > 100 µM (inactive)
GI50 (PC-3): > 100 µM (inactive)
GI50 (NCI/ADR-RES): > 100 µM (inactive)
GI50 (Hs-578T): > 100 µM (inactive)
GI50 (LOX IMVI): > 100 µM (inactive)
GI50 (ACHN): > 100 µM (inactive)
GI50 (SF-295): > 100 µM (inactive)
GI50 (COLO 205): > 100 µM (inactive)
GI50 (OVCAR-4): > 100 µM (inactive)
GI50 (EKVX): > 100 µM (inactive)
GI50 (SK-MEL-2): > 100 µM (inactive)
GI50 (BT-549): > 100 µM (inactive)
GI50 (HCT-116): > 100 µM (inactive)
GI50 (OVCAR-5): > 100 µM (inactive)
GI50 (HT-29): > 100 µM (inactive)
GI50 (HL-60): > 100 µM (inactive)
GI50 (DU-145): > 100 µM (inactive)
GI50 (NCI-H460): > 100 µM (inactive)
GI50 (HCT-15): > 100 µM
GI50 (CAKI-1): > 100 µM (inactive)
GI50 (MDA-N): > 100 µM (inactive)
GI50 (A549): > 100 µM (inactive)
GI50 (KM12): > 100 µM (inactive)
GI50 (NCI-H23): > 100 µM (inactive)
GI50 (MOLT-4): > 100 µM (inactive)
GI50 (SNB-75): > 100 µM (inactive)
GI50 (K562): > 100 µM (inactive)
GI50 (SF-539): > 100 µM (inactive)
GI50 (OVCAR-3): > 100 µM (inactive)
GI50 (UACC-62): > 100 µM (inactive)
GI50 (CCRF-CEM): > 100 µM (inactive)
GI50 (MCF7): > 100 µM (inactive)
GI50 (OVCAR-8): > 100 µM (inactive)
GI50 (SK-MEL-5): > 100 µM (inactive)
GI50 (SN12C): > 100 µM (inactive)
GI50 (786-0): > 100 µM (inactive)
GI50 (HCC 2998): > 100 µM (inactive)

COC(=O)Cc1c(-c2c(CC(=O)OC)c3ccccc3n2C2OC(COC(C)=O)C(OC(C)=O)C(OC(C)=O)C2OC(C)=O)[nH]c2ccccc12 (stereo not given)
GI50 (HOP-92): > 100 µM (inactive)
GI50 (SK-OV-3): > 100 µM (inactive)
GI50 (SK-MEL-28): > 100 µM (inactive)
GI50 (IGROV-1): 74.6 µM (inactive)
GI50 (Malme-3M): > 100 µM (inactive)
GI50 (MDA-MB-435): > 100 µM (inactive)
GI50 (TK-10): > 100 µM (inactive)
GI50 (HOP-62): > 100 µM (inactive)
GI50 (SW-620): > 100 µM (inactive)
GI50 (SF-268): > 100 µM (inactive)
GI50 (RPMI-8226): > 100 µM (inactive)
GI50 (MDA-MB-231): 43.2 µM (inactive)
GI50 (SNB-19): > 100 µM (inactive)
GI50 (UACC-257): > 100 µM (inactive)
GI50 (SR): > 100 µM (inactive)
GI50 (M14): > 100 µM (inactive)
GI50 (U-251): > 100 µM (inactive)
GI50 (UO-31): > 100 µM (inactive)
GI50 (PC-3): > 100 µM (inactive)
GI50 (SF-295): 90.8 µM (inactive)
GI50 (COLO 205): > 100 µM (inactive)
GI50 (OVCAR-4): > 100 µM (inactive)
GI50 (EKVX): > 100 µM (inactive)
GI50 (SK-MEL-2): > 100 µM (inactive)
GI50 (BT-549): > 100 µM (inactive)
GI50 (HCT-116): > 100 µM (inactive)
GI50 (OVCAR-5): > 100 µM (inactive)
GI50 (HT-29): > 100 µM (inactive)
GI50 (DU-145): > 100 µM (inactive)
GI50 (NCI-H460): > 100 µM (inactive)
GI50 (HCT-15): > 100 µM
GI50 (CAKI-1): > 100 µM (inactive)
GI50 (MDA-N): > 100 µM (inactive)
GI50 (A549): > 100 µM (inactive)
GI50 (KM12): 85.3 µM (inactive)
GI50 (NCI-H23): > 100 µM (inactive)
GI50 (MOLT-4): > 100 µM (inactive)
GI50 (OVCAR-3): > 100 µM (inactive)
GI50 (NCI-H522): 52 µM (inactive)
GI50 (UACC-62): > 100 µM (inactive)
GI50 (CCRF-CEM): > 100 µM (inactive)
GI50 (A498): 52.4 µM (inactive)
GI50 (SK-MEL-5): > 100 µM (inactive)
GI50 (SN12C): > 100 µM (inactive)
GI50 (HCC 2998): > 100 µM (inactive)
